Assay results: patent US11254663B2 (BRISTOL-MYERS SQUIBB COMPANY, priority 2019, dated 2022)

What follows are molecules tested against FXR (Homo sapiens (Human), UniProt Q96RI1) (assay: transient human FXR/Gal4-luciferase reporter assay). Settings: not given.
Format: cell-based
Outline: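 HEK293 cells stably carrying a 5×Gal4 response element–firefly luciferase reporter were transiently transfected overnight with a Gal4 DBD–human FXR LBD fusion plasmid. Compound was added in DMSO and cells were incubated overnight at 37 °C, 5% CO2. Activity was read as Steady-Glo luminescence.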

Sequence of FXR (Q96RI1 262-486): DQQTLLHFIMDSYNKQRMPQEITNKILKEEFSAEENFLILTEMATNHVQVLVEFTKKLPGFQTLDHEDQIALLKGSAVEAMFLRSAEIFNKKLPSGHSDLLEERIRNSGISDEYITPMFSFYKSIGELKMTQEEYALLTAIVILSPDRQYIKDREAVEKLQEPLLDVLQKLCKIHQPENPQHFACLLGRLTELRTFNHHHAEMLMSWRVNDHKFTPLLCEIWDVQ

SMILES | EC50
CCOc1cnc(-c2ccnc(N(CC34CCC(c5noc(C(C)(C)C)n5)(CC3)CC4)C(=O)C34CC(F)(C3)C4)c2)nc1 [Example 542, N-((4-(5-(tert-butyl)-1,2,4-oxadiazol-3-yl)bicyclo[2.2.2]octan-1-yl)methyl)-N-(4-(5-ethoxypyrimidin-2-yl)pyridin-2-yl)-3-fluorobicyclo[1.1.1]pentane-1-carboxamide] | 0.022 µM
O=C(N(CC12CCC(c3noc(C(F)F)n3)(CC1)CC2)c1cccc(-c2cnc(C3CC3)nc2)c1)C12CC(F)(C1)C2 [Example 463, N-(3-(2-cyclopropylpyrimidin-5-yl)phenyl)-N-((4-(5-(difluoromethyl)-1,2,4-oxadiazol-3-yl)bicyclo[2.2.2]octan-1-yl)methyl)-3-fluorobicyclo[1.1.1]pentane-1-carboxamide] | 0.215 µM
CCOc1ncc(-c2cccc(N(CC34CCC(c5noc(C6(C(F)(F)F)CC6)n5)(CC3)CC4)C(=O)C34CC(F)(C3)C4)c2)cn1 [Example 525, N-(3-(2-ethoxypyrimidin-5-yl)phenyl)-3-fluoro-N-((4-(5-(1-(trifluoromethyl)cyclopropyl)-1,2,4-oxadiazol-3-yl)bicyclo[2.2.2]octan-1-yl)methyl)bicyclo[1.1.1]pentane-1-carboxamide] | 0.142 µM
CCOc1ncc(-c2cccc(N(CC34CCC(c5nc(C(C)(C)C)no5)(CC3)CC4)C(=O)C34CC(N)(C3)C4)c2)cn1 [Example 506, 3-amino-N-((4-(3-(tert-butyl)-1,2,4-oxadiazol-5-yl)bicyclo[2.2.2]octan-1-yl)methyl)-N-(3-(2-ethoxypyrimidin-5-yl)phenyl)bicyclo[1.1.1]pentane-1-carboxamide] | 2.37 µM
CCOc1ncc(-c2cccc(N(CC34CCC(c5nc(C(C)(C)C)no5)(CC3)CC4)C(=O)C3CC(O)(C(F)(F)F)C3)c2)cn1 [Example 507, (1S,3S)—N-((4-(3-(tert-butyl)-1,2,4-oxadiazol-5-yl)bicyclo[2.2.2]octan-1-yl)methyl)-N-(3-(2-ethoxypyrimidin-5-yl)phenyl)-3-hydroxy-3-(trifluoromethyl)cyclobutane-1-carboxamide] | 0.188 µM

Same assay, conditions: Gal4-hFXR fusion construct, HEK293 reporter cells; response relative to 8 μM GW-4064

SMILES | EC50
Cc1cnc(-c2cccc(N(CC34CCC(c5nc(C(C)C)no5)(CC3)CC4)C(=O)C34CC(F)(C3)C4)c2)nc1 [Example 393, 3-fluoro-N-((4-(3-isopropyl-1,2,4-oxadiazol-5-yl)bicyclo[2.2.2]octan-1-yl)methyl)-N-(3-(5-methylpyrimidin-2-yl)phenyl)bicyclo[1.1.1]pentane-1-carboxamide] | 0.049 µM
CC(C)(C)c1noc(C23CCC(CN(C(=O)C45CC(F)(C4)C5)c4cccc(-c5ccc(NS(C)(=O)=O)nc5)c4)(CC2)CC3)n1 [Example 364, N-((4-(3-(tert-butyl)-1,2,4-oxadiazol-5-yl)bicyclo[2.2.2]octan-1-yl)methyl)-3-fluoro-N-(3-(6-(methylsulfonamido)pyridin-3-yl)phenyl)bicyclo[1.1.1]pentane-1-carboxamide] | 0.509 µM
O=C(N(CC12CCC(c3nc(C4CC4)no3)(CC1)CC2)c1cccc(-c2ccn3cnnc3c2)c1)C12CC(F)(C1)C2 [Example 307, N-(3-([1,2,4]triazolo[4,3-a]pyridin-7-yl)phenyl)-N-((4-(3-cyclopropyl-1,2,4-oxadiazol-5-yl)bicyclo[2.2.2]octan-1-yl)methyl)-3-fluorobicyclo[1.1.1]pentane-1-carboxamide] | 0.832 µM
N#Cc1cccc(-c2cccc(N(CC34CCC(c5nc(C6CC6)no5)(CC3)CC4)C(=O)C34CC(F)(C3)C4)c2)n1 [Example 292, N-(3-(6-cyanopyridin-2-yl)phenyl)-N-((4-(3-cyclopropyl-1,2,4-oxadiazol-5-yl)bicyclo[2.2.2]octan-1-yl)methyl)-3-fluorobicyclo[1.1.1]pentane-1-carboxamide] | 0.148 µM
O=C(C1CC(O)(C(F)(F)F)C1)N(CC12CCC(c3noc(-c4ccc(F)cc4)n3)(CC1)CC2)c1cccc(-c2ccc(OC(F)F)cc2)c1 (stereo not drawn) [Example 639, (cis)-N-(4′-(difluoromethoxy)-[1,1′-biphenyl]-3-yl)-N-((4-(5-(4-fluorophenyl)-1,2,4-oxadiazol-3-yl)bicyclo[2.2.2]octan-1-yl)methyl)-3-hydroxy-3-(trifluoromethyl)cyclobutane-1-carboxamide] | 0.221 µM
CC(F)(F)c1nc(C23CCC(CN(C(=O)OC(C)(C)C(F)(F)F)c4cc(-c5ccc(OC(F)(F)Cl)cc5)ccn4)(CC2)CC3)no1 [Example 615, 1,1,1-trifluoro-2-methylpropan-2-yl (4-(4-(chlorodifluoromethoxy)phenyl)pyridin-2-yl)((4-(5-(1,1-difluoroethyl)-1,2,4-oxadiazol-3-yl)bicyclo[2.2.2]octan-1-yl)methyl)carbamate] | 0.473 µM
CC(C)Oc1ccc(-c2cccc(N(CC34CCC(c5cc(C(C)(F)F)n(C)n5)(CC3)CC4)C(=O)OC(C)(C)C(F)(F)F)c2)cc1 [Example 658, 1,1,1-trifluoro-2-methylpropan-2-yl ((4-(5-(1,1-difluoroethyl)-1-methyl-1H-pyrazol-3-yl)bicyclo[2.2.2]octan-1-yl)methyl)(4′-isopropoxy-[1,1′-biphenyl]-3-yl)carbamate] | 0.917 µM
COc1ccc(-c2cccc(N(CC34CCC(c5nc(C6CC6)no5)(CC3)CC4)C(=O)C34CC(F)(C3)C4)c2)cc1OC [Example 301, N-((4-(3-cyclopropyl-1,2,4-oxadiazol-5-yl)bicyclo[2.2.2]octan-1-yl)methyl)-N-(3′,4′-dimethoxy-[1,1′-biphenyl]-3-yl)-3-fluorobicyclo[1.1.1]pentane-1-carboxamide] | 0.519 µM
COCc1ccc(-c2cccc(N(CC34CCC(c5nc(C(C)C)no5)(CC3)CC4)C(=O)C34CC(F)(C3)C4)c2)cn1 [Example 391, 3-fluoro-N-((4-(3-isopropyl-1,2,4-oxadiazol-5-yl)bicyclo[2.2.2]octan-1-yl)methyl)-N-(3-(6-(methoxymethyl)pyridin-3-yl)phenyl)bicyclo[1.1.1]pentane-1-carboxamide] | 0.147 µM
Cc1nc2ccc(-c3cccc(N(CC45CCC(c6ccc(C7(C#N)CC7)cc6)(CC4)OC5)C(=O)C45CC(F)(C4)C5)c3)cc2o1 [Example 347, N-((1-(4-(1-cyanocyclopropyl)phenyl)-2-oxabicyclo[2.2.2]octan-4-yl)methyl)-3-fluoro-N-(3-(2-methylbenzo[d]oxazol-6-yl)phenyl)bicyclo[1.1.1]pentane-1-carboxamide] | 0.123 µM
O=C(N(CC12CCC(c3nc(C4CC4)no3)(CC1)CC2)c1cccc(-c2ccc3c(c2)OCO3)c1)C12CC(F)(C1)C2 [Example 255, N-(3-(benzo[d][1,3]dioxol-5-yl)phenyl)-N-((4-(3-cyclopropyl-1,2,4-oxadiazol-5-yl)bicyclo[2.2.2]octan-1-yl)methyl)-3-fluorobicyclo[1.1.1]pentane-1-carboxamide] | 0.0698 µM
Cc1nc2ncc(-c3cccc(N(CC45CCC(c6nc(C(C)(C)C)no6)(CC4)CC5)C(=O)C45CC(F)(C4)C5)c3)cc2s1 [Example 365, N-((4-(3-(tert-butyl)-1,2,4-oxadiazol-5-yl)bicyclo[2.2.2]octan-1-yl)methyl)-3-fluoro-N-(3-(2-methylthiazolo[4,5-b]pyridin-6-yl)phenyl)bicyclo[1.1.1]pentane-1-carboxamide] | 0.084 µM
CC(C)(C#N)Oc1ccc(-c2cc(N(CC34CCC(c5noc(C(C)(C)F)n5)(CC3)CC4)C(=O)[C@H]3C[C@](O)(C(F)(F)F)C3)ccc2F)cc1 [Example 582, (cis)-N-(4′-((2-cyanopropan-2-yl)oxy)-6-fluoro-[1,1′-biphenyl]-3-yl)-N-((4-(5-(2-fluoropropan-2-yl)-1,2,4-oxadiazol-3-yl)bicyclo[2.2.2]octan-1-yl)methyl)-3-hydroxy-3-(trifluoromethyl)cyclobutane-1-carboxamide] | 0.048 µM
CCOc1cnc(-c2cccc(N(CC34CCC(c5nc(C6CC6)no5)(CC3)CC4)C(=O)C34CC(F)(C3)C4)c2)nc1 [Example 333, N-((4-(3-cyclopropyl-1,2,4-oxadiazol-5-yl)bicyclo[2.2.2]octan-1-yl)methyl)-N-(3-(5-ethoxypyrimidin-2-yl)phenyl)-3-fluorobicyclo[1.1.1]pentane-1-carboxamide] | 0.302 µM
O=C(N(CC12CCC(c3nc(C4CC4)no3)(CC1)CC2)c1cccc(-c2nc(C(F)(F)F)ccc2F)c1)C12CC(F)(C1)C2 [Example 293, N-((4-(3-cyclopropyl-1,2,4-oxadiazol-5-yl)bicyclo[2.2.2]octan-1-yl)methyl)-3-fluoro-N-(3-(3-fluoro-6-(trifluoromethyl)pyridin-2-yl)phenyl)bicyclo[1.1.1]pentane-1-carboxamide] | 0.679 µM
COc1ccc(C23CCC(CN(C(=O)C4CC(F)(F)C4)c4cccc(-c5ccc6nc(C)sc6c5)c4)(CC2)CO3)cc1 [Example 557, 3,3-Difluoro-N-((1-(4-methoxyphenyl)-2-oxabicyclo[2.2.2]octan-4-yl)methyl)-N-(3-(2-methylbenzo[d]thiazol-6-yl)phenyl)cyclobutane-1-carboxamide] | 1.58 µM
CC(C)c1cc(C23CCC(CN(C(=O)OC(C)(C)C(F)(F)F)c4cc(-c5ccc(C(C)(C)O)cc5)ccn4)(CC2)CC3)n(C)n1 [Example 661, 1,1,1-trifluoro-2-methylpropan-2-yl (4-(4-(2-hydroxypropan-2-yl)phenyl)pyridin-2-yl)((4-(3-isopropyl-1-methyl-1H-pyrazol-5-yl)bicyclo[2.2.2]octan-1-yl)methyl)carbamate] | 0.053 µM
Cc1nc2ccc(-c3cccc(N(CC45CCC(c6cnc(C(F)(F)F)nc6)(CC4)OC5)C(=O)C45CC(F)(C4)C5)c3)cc2s1 [Example 421, 3-fluoro-N-(3-(2-methylbenzo[d]thiazol-6-yl)phenyl)-N-((1-(2-(trifluoromethyl)pyrimidin-5-yl)-2-oxabicyclo[2.2.2]octan-4-yl)methyl)bicyclo[1.1.1]pentane-1-carboxamide] | 2.17 µM
